Test results as given in article PMC3606385 (PLoS ONE, 2013).
Several values for one entry are separate records, joined by “and”; a condition that tells them apart may be missing. Identical values can stand only once. Entries after “also recorded” stand apart in the source; their conditions may differ. Like-named read-outs stand apart in the source and are kept apart here. Marks after values point to notes of the source that are not given here.

Experiments:
[1] = target: T1, Human 11β-HSD1 (Homo sapiens, UniProt P28845); test: 11β-HSD1 assay in intact CHOP cells transfected with human HSD11B1; assay type: cell-based
T1 construct: expressed in transfected cells; host or cells: CHOP cells (transient, FuGENE)
Protocol: An expression plasmid was constructed to express human 11β-HSD1 (HSD11B1) cDNA in pcDNA I expression vector from its original human HSD11B1 vector (pBluescriptSK+).[15]. The Escherichia coli transformants carrying an insert were selected by colony hybridization, and a clone with the insert in the correct orientation relative to the vector T7 promoter was identified by restriction mapping. All transfections were carried out on 80% confluent cultures in 12-well plates. Aliquots of 1 µg HSD11B1 pcDNA I were transfected into mammalian CHOP cells with the FuGENE Transfection Reagent (Roche) according to manufacturer's protocol. Cells were allowed to grow for 24 hours in media containing 10% fetal bovine serum. Then media were removed and cells were harvested for 11β-HSD1 activity assay.
11β-HSD1 reductase activity was performed in intact cells using endogenous cofactor NADPH as described previously. […] 25×10^3 cells were added to each tube to initiate the reaction and the reaction mixture was incubated for up to 2 hrs, during which the reaction is within the linear range. At the end of reaction, the reaction was stopped by adding 2 ml ice-cold ether. The steroids were extracted, and the organic layer was dried under nitrogen. The steroids were separated chromatographically on thin layer plates in chloroform and methanol (90∶10, v/v), and the radioactivity was measured using a scanning radiometer (System AR2000, Bioscan Inc., Washington, DC) as described previously. The percentage conversion of 11DHC to CORT or cortisone to cortisol was calculated by dividing the radioactive counts identified as 11-OH-steroids by the total counts.
(§1) The IC50 was determined by adding different concentrations of each compound in the 11β-HSD1 or 11β-HSD2 reaction as described. The mode of inhibition was assayed by adding various concentrations of steroid substrates in the presence of an inhibitor as described.

[2] = target: T2, Human 11β-HSD2 (Homo sapiens, UniProt P80365); test: 11β-HSD2 assay in human kidney microsomes; assay type: biochemical; settings: human kidney microsomes
T2 construct: tissue Gentest (Woburn, MA); host or cells: human kidney microsomes
T2 sequence (P80365 1-405): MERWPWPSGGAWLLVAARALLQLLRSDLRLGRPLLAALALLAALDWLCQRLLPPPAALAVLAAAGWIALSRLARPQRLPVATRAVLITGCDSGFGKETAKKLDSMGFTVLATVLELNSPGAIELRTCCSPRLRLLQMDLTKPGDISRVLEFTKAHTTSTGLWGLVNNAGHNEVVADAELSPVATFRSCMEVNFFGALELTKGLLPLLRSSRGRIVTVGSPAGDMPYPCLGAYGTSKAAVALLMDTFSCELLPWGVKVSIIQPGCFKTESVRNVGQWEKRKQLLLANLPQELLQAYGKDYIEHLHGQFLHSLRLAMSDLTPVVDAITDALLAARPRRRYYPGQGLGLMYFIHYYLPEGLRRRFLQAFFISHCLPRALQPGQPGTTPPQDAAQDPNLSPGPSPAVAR
Protocol: The rat and human kidney microsomes were used for 11β-HSD2 sources. 11β-HSD2 activity was performed in the microsome according to a previously described method. In brief, the assay tubes contained 25 nM substrate CORT (for rat) or cortisol (for human), spiked with 30,000 cpm their respective ^3H-11β-hydroxyl steroid, 0.2 mM NAD+ and 0.1 mM DTT in the PBS buffer. 8 (rat) or 20 (human) µg kidney microsomes were added to each tube to initiate the reaction and the reaction mixture was incubated for up to 3 hrs, during which the reaction is within the linear range. The rest procedure was similar to 11β-HSD1 assay. The percentage conversion of CORT to 11DHC or cortisol to cortisone was calculated by dividing the radioactive counts identified as 11keto-steroids by the total counts.
as §1

[3] = target: T3, human liver 11β-HSD1 (Homo sapiens, UniProt P28845); test: Mode of inhibition, human liver 11β-HSD1; assay type: biochemical; settings: data not shown
T3 construct: tissue Gentest (Woburn, MA); host or cells: human liver microsomes
Protocol: The rat testis and liver or human liver microsomes were used for 11β-HSD1 assay. 11β-HSD1 activity was performed in the microsome according to a previously described method. In brief, the assay tubes contained 25 nM substrate 11DHC (for rat) or cortisone (for human), spiked with 30,000 cpm their respective ^3H-11keto-steroid, 0.2 mM NADPH and 5 mM glucose-6-phosphaare in the PBS buffer. 2 µg microsomes were added to each tube to initiate the reaction and the reaction mixture was incubated for up to 2 hrs, during which the reaction is within the linear range. The rest procedure was similar to 11β-HSD1 assay in intact cells.
as §1
Enzyme data were subjected to nonlinear analysis by GraphPad (Version 5, GraphPad Software Inc., San Diego, CA) for IC50. Lineweaver-Burk plot was used for the mode of inhibition. Data were subjected to analysis by one-way ANOVA followed by Tukey's multiple comparisons testing to identify significant differences between groups when three were calculated. Differences were regarded as significant at P<0.05.

[4] = test system: Sprague-Dawley rats with high-fat-diet-induced metabolic syndrome; test: High-fat-diet-induced metabolic syndrome treatment in rats; assay type: in vivo, rat; settings: for Effect on serum LDL / Effect on serum glucose / Effect on serum total cholesterol / Effect on serum triglyceride (Tg): 200 mg/kg
Protocol: By the end of curcumin treatment, rats were euthanized. The body, liver, kidney and testis weights were recorded. Sera were collected after placing the bloods at room temperature for 25 min and centrifuged at 1500 g/min for 20 minutes. Sera were used for measurement of serum glucose, and lipid analysis. Serum glucose, total cholesterol, low density […], apolipoprotein A1 is (APOA1) and apolipoprotein B (APOB) were measured using a Hitachi 7600 biochemical analyzer (Hitachi, Japan) according to standard clinical protocol.

[5] = human, oral doses up to 8 g; cited from earlier work
[6] = test system: db/db mice; settings: cited from earlier work
[7] = HFD rats, 200 mg/kg curcumin, 2 months, vs HFD
[8] = HFD rats, 200 mg/kg curcumin, 2 months, vs HFD, listed as Curcumin
[9] = HFD rats, 200 mg/kg curcumin, 2 months, vs HFD, listed as curcumin
[10] = HFD rats, 200 mg/kg/day gavage, 2 months, Mean ± SEM, n = 10

T1 sequence (P28845 whole entry): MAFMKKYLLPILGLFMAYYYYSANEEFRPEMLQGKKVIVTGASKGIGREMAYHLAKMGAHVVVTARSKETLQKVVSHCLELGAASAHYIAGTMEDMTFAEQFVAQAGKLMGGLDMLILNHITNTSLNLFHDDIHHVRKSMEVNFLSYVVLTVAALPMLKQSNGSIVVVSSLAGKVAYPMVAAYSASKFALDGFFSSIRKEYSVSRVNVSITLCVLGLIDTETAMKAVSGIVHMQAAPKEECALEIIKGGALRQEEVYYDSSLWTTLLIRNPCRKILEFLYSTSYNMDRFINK
T3 sequence (P28845 whole entry): as above

COc1cc(/C=C/C(=O)CC(=O)/C=C/c2ccc(O)c(OC)c2)ccc1O [1 (Curcumin), Curcumin]
IC50 ([1]; CHOP cells transfected with human HSD11B1, read-out: Human 11β-HSD1 IC50 (nM) in CHOP cells): 2300 nM
IC50 ([1]; IC50 human 11β-HSD1 in intact cells, intact CHOP cells transfected with human HSD11B1): 5780 ± 2220 nM
IC50 ([1]; intact CHOP cells transfected with human HSD11B1, read-out: IC50 human 11β-HSD1 in intact cells): 2290 nM and 2000 to 6000 nM and 2300 nM
IC50 ([2]; read-out: IC50 (nM) Human 11β-HSD2): 14600 nM
IC50 ([2]; read-out: IC50 human 11β-HSD2): 14600 nM
Mode of inhibition of human 11β-HSD1 [3]: competitive inhibitor
Effect on lipid profiles / HFD-induced dyslipidemia ([4]; 200 mg/kg/day oral, HFD rats): effectively improved; also recorded: effectively prevented
Effect on serum APOA1 [4, 7]: significantly lowered
Effect on serum APOB [4, 7]: significantly lowered
Effect on serum LDL [4, 8]: reduced
Effect on serum glucose [4, 8]: reduced
Effect on serum total cholesterol [4, 8]: reduced
Effect on serum triglyceride (Tg) [4, 8]: reduced
Effect on serum LDL [4, 9]: significantly lowered
Effect on serum glucose [4, 9]: significantly lowered
Effect on serum total cholesterol [4, 9]: significantly lowered
Effect on serum triglyceride (Tg) [4, 9]: significantly lowered
Body weight (g) [4, 10]: 324.8±6.614^b g
Kidney(g) [4, 10]: 1.309±0.0756^a g
Liver(g) [4, 10]: 10.67±0.297^a g
Testis(g) [4, 10]: 2.664±0.1012^a g
Weight Gain(g) [4, 10]: 136.3±6.516^c g
Effect on HFD-induced increase of body weight gain ([4]; two months of treatment): reduced
Effect on HFD-induced increase of liver weight ([4]; two months of treatment): reduced
Effect on kidney weight ([4]; two months of treatment): did not affect
Effect on testis weight ([4]; two months of treatment): did not affect
Adverse effects during treatment ([4]; two-month treatment, 200 mg/kg/day): no adverse effects
Time to peak level after oral administration [5]: ≤ 1 h
Effect on body weights [6]: lowered
Effect on insulin resistance [6]: corrected
Effect on serum glucose levels [6]: significantly reduced
